US10857105B2, “Compounds and compositions for intracellular delivery of therapeutic agents” (ModernaTX, Inc., priority 2017, dated 2020)

How the values were obtained:
[1] = test system: IL-6, IP-10; assay: Cytokine induction (IL-6, IP-10) in mice 6 hours after intravenous administration; assay type: in vivo; set-up: unit not given here; details: intravenous 0.5 mpk
Summary of the method: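 IL-6 and IP-10 concentrations determined 6 hours after a single intravenous 0.5 mpk dose of lipid nanoparticle formulation in mice, with MC3 and PBS as comparators.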

[2] = Residual lipid levels in rat liver and spleen (UPLC-MS); assay type: in vivo; details: for % Lipid Remaining in liver, 48 h, 2 mpk: assuming 300 g rat and 15 g liver
Protocol: At 48 h liver tissue was harvested for lipid quantification. To pre-weighed tissues, Milli-Q water was added (900 μL water per 100 mg tissue). Tissues were homogenized using an Omni probe homogenizer until uniform. 50 μL of samples and matrix calibration standards were aliquoted into a 96-well plate. 50 μL of blank matrix for matrix blanks and control blanks were aliquoted. 400 μL IS spiking solution were manually added to all samples except matrix blanks. 400 μL of 50:50 ACN:IPA were manually added to matrix-blanks. The plate was covered and the samples vortexed and centrifuged for 5 minutes at >3000 rpm. 200 μL of the samples were transferred into a clean 96-well plate for analysis. Samples were analyzed on a Waters Acquity UPLC using a Higgins Analytical Clipeus C8 column ([…], 30×2.1 mm) and a gradient of either 70-95% or 60-95% (Mobile Phase A: 5 mM ammonium formate in 50:50:1 H2O:MeOH:formic acid; Mobile Phase B: 5 mM ammonium formate in 100:1 MeOH:formic acid) over 1.3 min at […] (column temperature 55° C.). Detection was based on electrospray ionization (ESI) in positive mode using a Sciex API5500 Mass Spectrometer.
(§1) The expression of hEPO in rats intravenously administered a nanoparticle composition at a dose of 0.2 mpk or 2.0 mpk was measured at 6 hours. Table 16 summarize the ratio of hEPO expression levels using various nanoparticle compositions as compared to the hEPO expression level using MC3 formulation and the lipid levels in the liver measured 48 hours after administration, as described above. Tables 17 and 18 summarize the lipid levels in the liver and spleen measured 48 hours after administration of Compounds 28, 33, 53, and 54. Liver and spleen levels represent the average values calculated for 3 rats in each group. As is shown in Tables 17 and 18, less than 10% of Compounds 28, 33, 53, and 54 remained in the liver after 48 hours, while greater than 60% of MC3 remained.
(§2) Table 19A summarizes the hEPO expression, IP-10 induction, liver and spleen levels, and alanine aminotransferase (ALT) and aspartate aminotransferase (AST) measured upon intravenous administration of formulations including Compounds 48, 49, and 50 to rat at 0.2 and 2 mpk and hEPO mRNA. hEPO concentrations were measured 6 hours after administration, while cytokine induction and liver and spleen levels were measured 48 hours after administration. hEPO and IP-10 concentrations are presented in pg/ml, while liver levels are provided in ng/g. ALT and AST levels are presented in international units.
(§3) The expression of hEPO and lipid levels in the liver and spleen in rats intravenously administered a nanoparticle composition at a dose of 0.2 mpk was measured at various time points. Compounds 18 and 25 were selected for comparison with MC3. Lipids were formulated according to the standard MC3 formulation described above. Rats were administered intravenously a single 0.2 mpk dose and expression monitored at 0.25, 0.5, 1, 2, 4, 8, 24, and 48 hours after administration.

[3] = test system: hEPO mRNA; assay: hEPO expression after intravenous administration to rats; assay type: in vivo, rat; details: for hEPO expression / hEPO expression, 0.25 h / hEPO expression, 0.5 h / hEPO expression, 1 h / hEPO expression, 2 h / hEPO expression, 4 h / hEPO expression, 8 h / hEPO expression, 24 h / hEPO expression, 48 h: rat; for Lipid/MC3 hEPO conc. ratio, 0.2 mpk / Lipid/MC3 hEPO conc. ratio, 2 mpk: rats; for Lipid/MC3 hEPO expression: 6 hours after administration
Protocol: The expression of hEPO and cytokine induction in rats intravenously administered a nanoparticle composition at a dose of 2.0 mpk was measured at 6 h.
as §1, §2
The expression of hEPO induced by intravenous administration to rats of nanoparticle compositions at various doses was measured at 2, 4, 6, 8, 24, and 48 hour time points. FIGS. 3-6 respectively summarize the hEPO expression measured upon intravenous administration of formulations including Compounds 26, 18, 25, and MC3 to rat at various doses. The lipid levels of Compound 26 in the liver after 48 hours were about 19%.
as §3

| Compound | Cytokine induction, IL-6 [1] | Cytokine induction, IP-10 [1] | % Lipid Remaining in liver, 48 h, 2 mpk ([2]; rats, 48 h) [%] | hEPO expression ([3]; intravenous, 6 h, 2 mpk) [pg/mL] | Lipid/MC3 hEPO conc. ratio, 0.2 mpk ([3]; intravenous 0.2 mpk, 6 hours) | Lipid/MC3 hEPO conc. ratio, 2 mpk ([3]; intravenous 2 mpk, 6 hours) | hEPO expression, 0.25 h ([3]; intravenous 0.2 mpk) [pg/mL] | hEPO expression, 0.5 h ([3]; intravenous 0.2 mpk) [pg/mL] | hEPO expression, 1 h ([3]; intravenous 0.2 mpk) [pg/mL] | hEPO expression, 2 h ([3]; intravenous 0.2 mpk) [pg/mL] | hEPO expression, 4 h ([3]; intravenous 0.2 mpk) [pg/mL] | hEPO expression, 8 h ([3]; intravenous 0.2 mpk) [pg/mL] | hEPO expression, 24 h ([3]; intravenous 0.2 mpk) [pg/mL] | hEPO expression, 48 h ([3]; intravenous 0.2 mpk) [pg/mL] | further results |
| --- | --- | --- | --- | --- | --- | --- | --- | --- | --- | --- | --- | --- | --- | --- | --- |
| CCCCCCCCCN(CCO)CCCCCCCC(=O)OC(CCCCCCCC)CCCCCCCC [Compound 3, Heptadecan-9-yl 8-((2-hydroxyethyl)(nonyl)amino)octanoate] | 282.88 | 2052.87 | 14 | 1.74e+07 | 2.41 | 1.21 |  |  |  |  |  |  |  |  |  |
| CCCCCCCCCOC(=O)CCCCCCCN(CCO)CCCCCCCC(=O)OC(CCCCCCCC)CCCCCCCC [Compound 18, Heptadecan-9-yl 8-((2-hydroxyethyl)(8-(nonyloxy)-8-oxooctyl)amino)octanoate] | 78.76 | 139.92 | 0.018 | 9.96e+06 |  | 0.81 | 20227 | 20743 | 194353 | 238107 | 514807 | 915320 | 412051 | 52361 |  |
| CCCCCC/C=C\COC(=O)CCCCCCCN(CCO)CCCCCCCC(=O)OC(CCCCCCCC)CCCCCCCC [Compound 24, Heptadecan-9-yl (Z)-8-((2-hydroxyethyl) (8-(non-2-en-1-yloxy)-8-oxooctyl)amino)octanoate] | 163.53 | 1172.93 | 0.016 | 1.44e+07 | 1.75 | 1.01 |  |  |  |  |  |  |  |  |  |
| CCCCCCCCCCCOC(=O)CCCCCN(CCO)CCCCCCCC(=O)OC(CCCCCCCC)CCCCCCCC [Compound 25, Heptadecan-9-yl 8-((2-hydroxyethyl)(6-oxo-6-(undecyloxy)hexyl)amino)octanoate] | 233.45 | 1194.13 | 1.32 | 3.05e+07 | 2.41 | 2.13 | 0 | 19553 | 434299 | 2042807 | 3176560 | 2631633 | 869374 | 103089 |  |
| CCCCCCCCCOC(=O)CCCN(CCO)CCCCCCCC(=O)OC(CCCCCCCC)CCCCCCCC [Compound 26, Heptadecan-9-yl 8-((2-hydroxyethyl)(4-(nonyloxy)-4-oxobutyl)amino) octanoate] | 273.56 | 2330.01 | 20 |  |  | 4.95 |  |  |  |  |  |  |  |  |  |
| CCCCCCCCCOC(=O)CCCCCCCN(CCO)CCCCCCCOC(=O)C(CCCCCCCC)CCCCCCCC [Compound 30, 7-((2-Hydroxyethyl)(8-(nonyloxy)-8-oxooctyl)amino)heptyl 2-octyldecanoate] | 152.51 | 1638.77 | <0.01 | 1.63e+07 | 1.87 | 1.14 |  |  |  |  |  |  |  |  |  |
| CCCCCCCCC(C)OC(=O)CCCCCCCN(CCO)CCCCCCCC(=O)OC(CCCCCCCC)CCCCCCCC (stereo not drawn) [Compound 48, decan-2-yl 8-((8-(heptadecan-9-yloxy)-8-oxooctyl)(2-hydroxyethyl)amino)octanoate] |  |  | 7.22 |  | 5.39 | 3.84 |  |  |  |  |  |  |  |  |  |
| CCCCCC=CCC=CCCCCCCCCC(CCCCCCCCC=CCC=CCCCCC)OC(=O)CCCN(C)C (stereo not drawn) [MC3, heptatriaconta-6,9,28,31-tetraen-19-yl 4-(dimethylamino)butanoate, reference compound] | 124.42 | 504.90 | 87 | 1.33e+07 | 1 | 1 | 0 | 42457 | 93720 | 524093 | 601307 | 1536833 | 703619 | 64687 | % dose remaining, liver, 24 h ([2]; Table 19B, liver, 24 h): 44%; % lipid remaining in liver after 48 hours ([2]; liver, 48 hours): 87%; % remaining dose in liver, 48 h ([2]; rats, 48 h): 74%; Lipid remaining in the liver after 48 hours ([2]; rats, intravenous, 0.2 mpk or 2.0 mpk, 48 hours): greater than 60%; Lipid/MC3 hEPO expression ([3]; 0.2 mpk dose to rat): 1; Lipid/MC3 hEPO expression ([3]; 2 mpk dose to rat): 1; [hEPO] ([3]; Table 19B): 14800 pg/mL; hEPO AUC ([3]; Table 19B): 3.46e+07 pg·h/mL; hEPO expression ([3]; intravenous 0.2 mpk, 6 hours): 7.68e+06 pg/mL; hEPO expression ([3]; intravenous 2 mpk, 6 hours): 9.29e+06 pg/mL |
| Nonyl 8-((6-(heptadecan-9-yloxy)-6-oxohexyl)(2-hydroxyethyl)amino) octanoate [Compound 27] | 161.07 | 345.56 |  |  |  |  |  |  |  |  |  |  |  |  |  |
